Data published in ChEMBL document CHEMBL1201862, “PubChem BioAssay data set” (2004).
Activity calls are given as the source filed them.

How the values were obtained:
[1] = biological target: Paired box protein Pax-8 (Homo sapiens, UniProt Q06710); assay: inhibitors of PAX8-driven TPO luciferase reporter, dose response, RMG-I cells, cherry-pick (AID 687027); type: functional, cell-based;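 note: luciferase reporter driven by Pax8 target thyroperoxidase promoter measured by SteadyGlo luminescence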
[2] = NIH:OVCAR-3 ovarian cancer cell cytotoxicity, dose response, PAX8 inhibitor project, plate reader, dry powder samples (AID 743044); type: functional, cell-based
[3] = cytotoxicity in OVCAR8 ovarian cancer cells, dose response, PAX8 project, cell-based, plate reader, dry powder samples (AID 743197); type: functional; settings: OVCAR-8
[4] = biological target: T1, Oxysterols receptor LXR-beta (Homo sapiens, UniProt P55055); type: functional, cell-based;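 note: agonist activity at LXR measured by a cell-based luminescence readout across a dose range, run as a counterscreen for daf-12 agonists; HEK293 cells with Gal4-LXR fusion and GAL4-driven luciferase reporter; potency for activation of Gal4-LXR reporter so compounds are agonists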
T1 sequence (P55055 whole entry): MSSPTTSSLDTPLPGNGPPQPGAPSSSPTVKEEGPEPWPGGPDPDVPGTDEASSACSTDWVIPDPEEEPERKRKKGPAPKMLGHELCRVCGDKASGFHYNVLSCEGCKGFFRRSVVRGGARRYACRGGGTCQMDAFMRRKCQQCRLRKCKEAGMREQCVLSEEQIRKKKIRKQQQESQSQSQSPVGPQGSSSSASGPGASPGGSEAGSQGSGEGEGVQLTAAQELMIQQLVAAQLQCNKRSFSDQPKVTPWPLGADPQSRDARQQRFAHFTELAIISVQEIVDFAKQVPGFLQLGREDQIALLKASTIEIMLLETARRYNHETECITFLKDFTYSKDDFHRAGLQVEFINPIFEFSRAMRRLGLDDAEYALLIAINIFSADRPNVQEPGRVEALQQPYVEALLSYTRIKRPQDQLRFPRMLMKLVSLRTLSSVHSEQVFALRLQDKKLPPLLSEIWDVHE

[5] = biological target: T2, fMet-Leu-Phe receptor (Homo sapiens, UniProt P21462); assay: FPR ligands, dose response (AID 519); type: functional
T2 sequence (P21462 whole entry): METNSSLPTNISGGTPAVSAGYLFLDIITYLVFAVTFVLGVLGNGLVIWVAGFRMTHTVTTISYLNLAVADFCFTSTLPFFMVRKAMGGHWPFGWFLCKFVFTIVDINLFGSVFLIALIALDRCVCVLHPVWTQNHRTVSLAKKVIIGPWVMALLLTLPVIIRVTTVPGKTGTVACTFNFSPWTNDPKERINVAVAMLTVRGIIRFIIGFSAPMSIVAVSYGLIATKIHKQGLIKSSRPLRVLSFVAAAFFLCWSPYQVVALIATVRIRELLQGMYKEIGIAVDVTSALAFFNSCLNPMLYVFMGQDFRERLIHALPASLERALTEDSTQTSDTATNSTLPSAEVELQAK

[6] = biological target: Glyceraldehyde-3-phosphate dehydrogenase (Homo sapiens, UniProt P04406)
Glyceraldehyde-3-phosphate dehydrogenase, sequence (P04406 whole entry): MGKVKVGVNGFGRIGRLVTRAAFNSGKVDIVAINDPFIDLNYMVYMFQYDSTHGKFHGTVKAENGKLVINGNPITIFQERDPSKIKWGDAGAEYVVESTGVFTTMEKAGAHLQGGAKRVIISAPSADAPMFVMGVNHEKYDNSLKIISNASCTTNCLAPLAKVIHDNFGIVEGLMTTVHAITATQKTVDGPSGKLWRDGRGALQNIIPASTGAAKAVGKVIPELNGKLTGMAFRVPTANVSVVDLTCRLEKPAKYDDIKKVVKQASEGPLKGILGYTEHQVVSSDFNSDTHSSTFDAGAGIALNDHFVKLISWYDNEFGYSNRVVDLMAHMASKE

[7] = biological target: T3, Bcl-2-related protein A1 (Mus musculus, UniProt Q07440); assay: Bfl-1 inhibitors blocking BH3 peptide binding, confirmation, biochemical, TR-FRET, mouse Bfl-1 (AID 621);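 note: TR-FRET binding of GST-Bfl-1 to FITC-labelled Bid peptide via terbium antibody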
T3 sequence (Q07440 whole entry): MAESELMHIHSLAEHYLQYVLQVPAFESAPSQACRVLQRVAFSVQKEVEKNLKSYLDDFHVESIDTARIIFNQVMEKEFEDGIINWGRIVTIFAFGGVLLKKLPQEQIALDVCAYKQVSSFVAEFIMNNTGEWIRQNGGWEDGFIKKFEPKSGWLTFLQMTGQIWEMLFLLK

[8] = biological target: T3, Bcl-2-related protein A1; assay: Bfl-1 binding inhibitors, SAR follow-up, biochemical, fluorescence polarization (AID 1070)
[9] = biological target: T4, Mannose-6-phosphate isomerase (Homo sapiens, UniProt P34949); assay: human PMI inhibitors, high substrate, primary screen, biochemical, fluorescence intensity, high mannose 6-phosphate (AID 1220)
T4 sequence (P34949 whole entry): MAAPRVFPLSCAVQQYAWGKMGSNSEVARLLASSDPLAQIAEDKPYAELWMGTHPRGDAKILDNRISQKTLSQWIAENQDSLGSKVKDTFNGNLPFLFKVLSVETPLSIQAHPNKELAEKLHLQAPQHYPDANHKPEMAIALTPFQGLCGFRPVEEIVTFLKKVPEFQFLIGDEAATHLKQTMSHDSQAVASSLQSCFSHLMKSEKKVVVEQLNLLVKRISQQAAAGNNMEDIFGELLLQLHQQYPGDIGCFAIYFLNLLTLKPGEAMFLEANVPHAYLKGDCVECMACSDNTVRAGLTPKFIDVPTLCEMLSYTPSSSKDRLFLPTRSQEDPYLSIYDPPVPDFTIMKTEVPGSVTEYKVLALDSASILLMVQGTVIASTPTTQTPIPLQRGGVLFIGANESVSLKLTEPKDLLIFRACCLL

[10] = biological target: Eukaryotic translation initiation factor 4E (Mus musculus, UniProt P63073); assay: eIF4E–eIF4G protein interaction inhibitors, dose response, biochemical, TR-FRET (AID 855); type: functional;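 note: potency for disrupting eIF4E binding to eIF4GI seen as loss of FRET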
Eukaryotic translation initiation factor 4E, sequence (P63073 whole entry): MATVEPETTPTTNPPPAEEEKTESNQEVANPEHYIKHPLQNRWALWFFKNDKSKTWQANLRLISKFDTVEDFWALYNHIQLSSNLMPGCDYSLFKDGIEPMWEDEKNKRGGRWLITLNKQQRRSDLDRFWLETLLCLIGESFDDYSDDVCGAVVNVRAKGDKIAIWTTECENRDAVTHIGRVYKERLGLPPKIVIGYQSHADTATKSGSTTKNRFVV

[11] = biological target: T5, 1-phosphatidylinositol 4,5-bisphosphate phosphodiesterase beta-3 (Homo sapiens, UniProt Q01970); assay: Fluorescence-based biochemical high throughput dose response assay to identify inhibitors of phospholipase C isozymes (PLC-B3).
T5 sequence (Q01970 whole entry): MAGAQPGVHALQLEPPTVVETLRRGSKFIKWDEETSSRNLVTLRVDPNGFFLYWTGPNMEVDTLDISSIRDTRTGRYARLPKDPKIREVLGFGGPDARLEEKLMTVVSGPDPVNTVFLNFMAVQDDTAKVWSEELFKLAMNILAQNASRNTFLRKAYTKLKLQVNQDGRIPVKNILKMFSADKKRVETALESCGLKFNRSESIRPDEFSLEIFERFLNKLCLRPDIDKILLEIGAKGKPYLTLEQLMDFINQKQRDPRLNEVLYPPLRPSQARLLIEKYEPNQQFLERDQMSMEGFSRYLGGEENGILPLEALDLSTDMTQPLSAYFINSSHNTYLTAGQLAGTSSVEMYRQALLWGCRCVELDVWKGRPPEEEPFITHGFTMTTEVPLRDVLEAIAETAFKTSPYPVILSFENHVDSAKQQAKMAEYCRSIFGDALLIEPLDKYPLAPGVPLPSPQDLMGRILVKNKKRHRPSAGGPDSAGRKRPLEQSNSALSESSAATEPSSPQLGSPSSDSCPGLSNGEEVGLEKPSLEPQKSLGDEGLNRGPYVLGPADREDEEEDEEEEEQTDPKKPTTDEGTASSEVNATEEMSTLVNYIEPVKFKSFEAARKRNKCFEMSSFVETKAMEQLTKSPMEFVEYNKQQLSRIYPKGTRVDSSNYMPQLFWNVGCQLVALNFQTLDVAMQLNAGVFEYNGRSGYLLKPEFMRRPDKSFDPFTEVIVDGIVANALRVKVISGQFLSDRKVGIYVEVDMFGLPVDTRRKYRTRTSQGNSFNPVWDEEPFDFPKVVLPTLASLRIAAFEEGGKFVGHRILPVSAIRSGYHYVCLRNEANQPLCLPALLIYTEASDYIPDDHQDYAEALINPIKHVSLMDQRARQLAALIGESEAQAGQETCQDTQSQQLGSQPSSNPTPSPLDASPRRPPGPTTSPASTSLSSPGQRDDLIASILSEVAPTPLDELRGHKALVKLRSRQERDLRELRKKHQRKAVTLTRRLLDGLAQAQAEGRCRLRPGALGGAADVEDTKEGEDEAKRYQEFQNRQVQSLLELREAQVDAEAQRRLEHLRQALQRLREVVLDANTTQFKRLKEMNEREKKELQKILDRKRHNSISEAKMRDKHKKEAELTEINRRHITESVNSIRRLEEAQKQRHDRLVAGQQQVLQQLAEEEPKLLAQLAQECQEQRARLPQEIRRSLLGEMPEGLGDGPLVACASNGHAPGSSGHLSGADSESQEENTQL

[12] = biological target: T6, 1-phosphatidylinositol 4,5-bisphosphate phosphodiesterase gamma-1 (Homo sapiens, UniProt P19174); assay: Counterscreen for inhibitors of phospholipase C isozymes (PLC-B3): Fluorescence-based biochemical high throughput dose response assay to identify inhibitors of phospholipase C isozymes (PLC-gamma1).
T6 sequence (P19174 whole entry): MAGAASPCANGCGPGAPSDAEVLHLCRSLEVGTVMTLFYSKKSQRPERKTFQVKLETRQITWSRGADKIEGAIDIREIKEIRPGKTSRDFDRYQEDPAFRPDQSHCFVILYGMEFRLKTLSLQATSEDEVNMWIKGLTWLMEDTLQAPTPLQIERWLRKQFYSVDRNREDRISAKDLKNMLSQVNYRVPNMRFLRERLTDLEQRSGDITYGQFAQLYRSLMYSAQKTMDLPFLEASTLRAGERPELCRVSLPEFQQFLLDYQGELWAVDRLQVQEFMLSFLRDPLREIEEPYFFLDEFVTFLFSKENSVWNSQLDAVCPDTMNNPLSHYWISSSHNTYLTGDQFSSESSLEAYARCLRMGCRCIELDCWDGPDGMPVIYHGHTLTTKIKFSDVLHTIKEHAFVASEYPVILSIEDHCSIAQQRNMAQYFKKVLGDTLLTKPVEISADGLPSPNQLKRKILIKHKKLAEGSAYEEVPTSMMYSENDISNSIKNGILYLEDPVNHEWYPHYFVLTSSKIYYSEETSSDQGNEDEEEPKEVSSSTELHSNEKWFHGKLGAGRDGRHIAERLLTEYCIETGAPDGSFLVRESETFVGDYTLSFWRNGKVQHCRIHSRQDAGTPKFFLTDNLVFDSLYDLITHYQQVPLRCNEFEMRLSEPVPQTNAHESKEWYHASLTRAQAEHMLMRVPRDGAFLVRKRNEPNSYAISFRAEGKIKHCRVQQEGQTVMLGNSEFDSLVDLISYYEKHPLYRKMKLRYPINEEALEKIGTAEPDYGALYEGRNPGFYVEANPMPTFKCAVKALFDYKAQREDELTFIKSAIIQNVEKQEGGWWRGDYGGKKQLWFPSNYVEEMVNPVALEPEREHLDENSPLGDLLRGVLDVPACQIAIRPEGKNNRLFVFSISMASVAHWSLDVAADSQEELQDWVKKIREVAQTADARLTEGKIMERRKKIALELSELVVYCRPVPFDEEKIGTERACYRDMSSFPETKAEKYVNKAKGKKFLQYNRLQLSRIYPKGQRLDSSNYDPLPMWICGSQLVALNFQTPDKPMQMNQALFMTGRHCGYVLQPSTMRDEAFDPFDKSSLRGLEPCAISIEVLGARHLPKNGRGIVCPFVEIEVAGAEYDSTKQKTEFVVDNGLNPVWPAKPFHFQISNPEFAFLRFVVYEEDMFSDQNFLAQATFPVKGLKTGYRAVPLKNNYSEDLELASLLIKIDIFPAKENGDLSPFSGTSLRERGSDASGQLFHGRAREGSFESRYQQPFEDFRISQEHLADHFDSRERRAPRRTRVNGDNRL

[13] = biological target: Genome polyprotein (dengue virus type 2, UniProt P29990); assay: Dengue-2 NS5 methyltransferase inhibitors, primary screen, biochemical, confirmation dose response (AID 588689); type: functional
Genome polyprotein, sequence (P29990 2492-3391 limits assumed): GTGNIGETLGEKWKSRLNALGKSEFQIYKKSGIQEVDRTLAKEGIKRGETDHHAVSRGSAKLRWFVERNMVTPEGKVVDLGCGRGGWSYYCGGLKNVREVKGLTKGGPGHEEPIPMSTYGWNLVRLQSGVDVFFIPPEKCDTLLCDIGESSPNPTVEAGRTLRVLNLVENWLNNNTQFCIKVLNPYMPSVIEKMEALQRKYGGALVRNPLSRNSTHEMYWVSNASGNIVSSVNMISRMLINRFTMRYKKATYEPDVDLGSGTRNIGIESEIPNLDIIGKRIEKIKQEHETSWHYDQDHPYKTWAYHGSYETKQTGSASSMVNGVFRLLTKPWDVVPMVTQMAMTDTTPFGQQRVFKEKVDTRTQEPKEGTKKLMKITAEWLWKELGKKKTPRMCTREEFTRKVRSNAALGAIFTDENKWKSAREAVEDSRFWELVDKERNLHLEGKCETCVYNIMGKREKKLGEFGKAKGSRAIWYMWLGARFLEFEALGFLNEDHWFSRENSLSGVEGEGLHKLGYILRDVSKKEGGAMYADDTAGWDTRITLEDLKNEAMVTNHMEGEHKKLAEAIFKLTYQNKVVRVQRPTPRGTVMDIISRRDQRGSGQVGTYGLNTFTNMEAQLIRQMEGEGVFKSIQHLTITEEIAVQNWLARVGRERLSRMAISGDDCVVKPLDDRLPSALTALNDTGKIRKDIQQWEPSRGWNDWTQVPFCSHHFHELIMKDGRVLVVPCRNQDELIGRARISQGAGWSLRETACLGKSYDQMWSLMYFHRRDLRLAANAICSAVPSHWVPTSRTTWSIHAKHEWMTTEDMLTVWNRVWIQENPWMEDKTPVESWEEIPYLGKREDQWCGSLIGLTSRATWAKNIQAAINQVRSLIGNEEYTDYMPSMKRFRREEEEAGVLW

[14] = IGROV1 ovarian cancer cell cytotoxicity, dose response, PAX8 inhibitor project, plate reader, dry powder samples (AID 743043); type: functional, cell-based; settings: IGROV-1

Paired box protein Pax-8, sequence (Q06710 whole entry): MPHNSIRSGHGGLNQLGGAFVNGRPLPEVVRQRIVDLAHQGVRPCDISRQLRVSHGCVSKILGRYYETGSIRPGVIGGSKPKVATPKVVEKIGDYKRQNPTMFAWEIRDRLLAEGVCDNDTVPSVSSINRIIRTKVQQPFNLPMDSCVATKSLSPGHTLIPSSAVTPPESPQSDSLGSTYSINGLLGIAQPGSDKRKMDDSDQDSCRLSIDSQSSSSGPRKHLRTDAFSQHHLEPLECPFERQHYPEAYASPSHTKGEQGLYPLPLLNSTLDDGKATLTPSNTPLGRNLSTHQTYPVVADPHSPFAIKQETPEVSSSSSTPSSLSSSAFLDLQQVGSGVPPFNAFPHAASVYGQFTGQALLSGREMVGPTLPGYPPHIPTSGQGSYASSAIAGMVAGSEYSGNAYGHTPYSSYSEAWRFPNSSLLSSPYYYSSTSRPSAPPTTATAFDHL

## C[C@@H]1CCCCO[C@@H](CN(C)Cc2ccncc2)[C@H](C)CN([C@@H](C)CO)C(=O)c2cc(NC(=O)Nc3ccc(C(F)(F)F)cc3)ccc2O1
[1]
  AC50: 5.52 µM (active)
[2]
  AC50: 35.8 µM (active)
[3]
  AC50: > 70 µM (inactive)

## Cc1ccc(C(=N)NOC(=O)c2ccco2)cc1
[4]
  EC50: > 67.5 µM (inactive)

## CCOC(=O)c1cc(NC(=O)C2C3CCC(O3)C2C(=O)O)cc(C(=O)OCC)c1 (stereo unspecified)
[5]
  Ki: > 66.7 µM (inactive)

## O=C1C(Cl)=C(N2CCN(CCNCc3ccccn3)CC2)C(=O)N1c1ccc(Cl)c(Cl)c1
[6]
  IC50: > 100 µM (not active)
[7]
  IC50: 8.14 µM (active)
[8]
  IC50: 16.3 µM (active)

## COc1ccc(-c2cc(C(F)(F)F)nc(N3CCN(Cc4ccccc4)CC3)n2)cc1OC
[5]
  Ki: > 66.7 µM (inactive)

## Cc1nn(-c2nnc(NC3CCCCC3)nn2)c(C)c1Br
[4]
  EC50: > 67.6 µM (inactive)

## c1ccc2[nH]c(SN3CCOCC3)nc2c1
[9]
  IC50: > 50 µM (not active)
[10]
  IC50: 27.5 µM (active)

## CC1=C(C(=O)OC(C)C)[C@]2(C(=O)N(CC(N)=O)c3ccccc32)C(C#N)=C(N)O1
[5]
  Ki: > 66.7 µM (inactive)

## CCc1cccc(NC(=O)CN(c2ccc(OC)cc2)S(=O)(=O)c2c(C)n[nH]c2C)c1
[11]
  IC50: > 123 µM (inactive)
[12]
  IC50: > 123 µM (inactive)

## CSc1nc(N)c(C(=O)NC2CCCCC2)s1
[11]
  IC50: > 123 µM (inactive)
[12]
  IC50: > 123 µM (inactive)

## Fc1ccccc1CSc1ncnc2c1ncn2C1CCCCO1 (stereo unspecified)
[4]
  EC50: > 67.6 µM (inactive)

## Cc1ccc(C23CC4CC(CC(C(=O)NCC(=O)O)(C4)C2)C3)cc1
[11]
  IC50: > 122 µM (inactive)
[12]
  IC50: > 122 µM (inactive)

## COc1cc(Cl)cc(C(c2c(C(=O)O)[nH]c3ccccc23)c2c(C(=O)O)[nH]c3ccccc23)c1O
[11]
  IC50: > 122 µM (inactive)
[13]
  IC50: 16.9 µM (active)
[12]
  IC50: 54 µM (inactive)

## C[C@@H]1CN([C@H](C)CO)C(=O)c2cc(NS(=O)(=O)c3ccc(Cl)cc3)ccc2O[C@@H](C)CCCCO[C@H]1CN(C)Cc1ccc2c(c1)OCO2
[1]
  AC50: 10.2 µM (active)
[2]
  AC50: 17.5 µM (active)
[3]
  AC50: 51.2 µM (active)
[14]
  AC50: 49.9 µM (active)

## C[C@@H]1CCCCO[C@@H](CN(C)Cc2ccc(C(F)(F)F)cc2)[C@H](C)CN([C@@H](C)CO)C(=O)c2cc(NC(=O)Cc3ccccc3)ccc2O1
[1]
  AC50: 7.16 µM (active)
[2]
  AC50: 19.8 µM (active)
[3]
  AC50: 33.3 µM (active)
[14]
  AC50: 25.7 µM (active)
